According to patent US20180037568A1, “MODULATORS OF METHYL MODIFYING ENZYMES, COMPOSITIONS AND USES THEREOF” (Constellation Pharmaceuticals, Inc., priority 2015, published 2018):
pIC50: −log10 of the molar value. Where two headings read alike, the source gives them in different places.

Legend:
PRC2 containing wt EZH2 = target: T1, PRC2 containing wt EZH2 (Homo sapiens, UniProt Q15910); test: EZH2 pep BSA Brij 4.0 LowE (IC50): 3H-SAM incorporation into biotinylated H3 peptide; type: biochemical; details: read-out: EZH2 pep BSA Brij 4.0 LowE (IC50); 20 pM PRC2 wt EZH2, 0.9 μM 3H-SAM, biotinylated H3 peptide substrate, 2 μM H3K27me3 activating peptide
T1 construct: made in house
Procedure, shortened: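 PRC2 (wt EZH2, 20 pM) pre-incubated 120 min with compound, 0.9 μM 3H-SAM and 2 μM H3K27me3 activating peptide in pH 8.5 Tris/DTT/Brij-35/0.1% BSA, 0.8% DMSO. Biotinylated H3K27me1 peptide added (2 μM stock), 5 h at room temperature, EDTA/SAH quench, streptavidin Flashplate capture. IC50 from four-parameter fit versus full-activity and no-enzyme controls.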

[1] = In vitro metabolism, mouse liver microsomes; type: in vitro ADME; details: 10 μM compound, 0.7 mg protein/mL, read-out: intrinsic clearance
Description: (§1) The in vitro metabolism of compound 21 was evaluated by disappearance of compound in mouse, rat, dog and human liver microsomes at 10 μM compound concentration.
(§2) Data is expressed in μL/min/mg protein.

[2] = In vitro metabolism, human liver microsomes; type: in vitro ADME; details: 10 μM compound, 0.7 mg protein/mL, read-out: intrinsic clearance
Description: as §1, §2

[3] = Mean plasma and tumor concentration, 7-day study in SCID mice; type: in vivo; details: mouse, po, female SCID mice

T1 sequence (Q15910 whole entry): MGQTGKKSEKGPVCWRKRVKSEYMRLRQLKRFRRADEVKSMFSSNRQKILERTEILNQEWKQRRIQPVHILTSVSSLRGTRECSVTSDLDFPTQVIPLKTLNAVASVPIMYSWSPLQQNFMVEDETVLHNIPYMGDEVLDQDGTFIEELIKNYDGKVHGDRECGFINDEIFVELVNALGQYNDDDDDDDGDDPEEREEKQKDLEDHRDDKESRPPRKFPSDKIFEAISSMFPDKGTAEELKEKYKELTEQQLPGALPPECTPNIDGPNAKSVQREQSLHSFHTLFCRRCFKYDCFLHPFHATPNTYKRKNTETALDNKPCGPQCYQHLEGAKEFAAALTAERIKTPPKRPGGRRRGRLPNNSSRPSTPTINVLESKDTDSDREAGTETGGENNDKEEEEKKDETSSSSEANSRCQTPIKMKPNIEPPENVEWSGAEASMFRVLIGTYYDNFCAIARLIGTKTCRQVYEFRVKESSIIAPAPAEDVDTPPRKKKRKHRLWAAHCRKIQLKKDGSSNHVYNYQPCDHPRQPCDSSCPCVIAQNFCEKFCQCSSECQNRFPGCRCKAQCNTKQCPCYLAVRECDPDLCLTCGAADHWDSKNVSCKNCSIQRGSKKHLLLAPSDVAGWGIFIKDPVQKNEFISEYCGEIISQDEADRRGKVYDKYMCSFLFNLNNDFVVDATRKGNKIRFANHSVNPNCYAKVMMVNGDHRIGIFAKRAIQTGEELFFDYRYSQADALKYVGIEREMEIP
T1 sequence (O75530 whole entry partner): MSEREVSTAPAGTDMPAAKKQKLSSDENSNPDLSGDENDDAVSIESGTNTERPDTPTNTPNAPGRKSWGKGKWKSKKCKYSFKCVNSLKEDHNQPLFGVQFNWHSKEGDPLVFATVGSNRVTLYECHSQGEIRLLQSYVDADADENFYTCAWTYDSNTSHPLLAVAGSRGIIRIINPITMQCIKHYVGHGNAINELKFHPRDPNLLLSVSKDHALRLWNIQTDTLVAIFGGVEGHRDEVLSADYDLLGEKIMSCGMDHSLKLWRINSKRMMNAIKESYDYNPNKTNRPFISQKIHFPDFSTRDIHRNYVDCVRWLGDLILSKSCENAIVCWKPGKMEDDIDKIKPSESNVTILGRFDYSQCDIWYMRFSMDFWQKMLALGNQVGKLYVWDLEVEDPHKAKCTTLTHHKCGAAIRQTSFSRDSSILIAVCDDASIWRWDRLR
T1 sequence (Q15022 whole entry partner): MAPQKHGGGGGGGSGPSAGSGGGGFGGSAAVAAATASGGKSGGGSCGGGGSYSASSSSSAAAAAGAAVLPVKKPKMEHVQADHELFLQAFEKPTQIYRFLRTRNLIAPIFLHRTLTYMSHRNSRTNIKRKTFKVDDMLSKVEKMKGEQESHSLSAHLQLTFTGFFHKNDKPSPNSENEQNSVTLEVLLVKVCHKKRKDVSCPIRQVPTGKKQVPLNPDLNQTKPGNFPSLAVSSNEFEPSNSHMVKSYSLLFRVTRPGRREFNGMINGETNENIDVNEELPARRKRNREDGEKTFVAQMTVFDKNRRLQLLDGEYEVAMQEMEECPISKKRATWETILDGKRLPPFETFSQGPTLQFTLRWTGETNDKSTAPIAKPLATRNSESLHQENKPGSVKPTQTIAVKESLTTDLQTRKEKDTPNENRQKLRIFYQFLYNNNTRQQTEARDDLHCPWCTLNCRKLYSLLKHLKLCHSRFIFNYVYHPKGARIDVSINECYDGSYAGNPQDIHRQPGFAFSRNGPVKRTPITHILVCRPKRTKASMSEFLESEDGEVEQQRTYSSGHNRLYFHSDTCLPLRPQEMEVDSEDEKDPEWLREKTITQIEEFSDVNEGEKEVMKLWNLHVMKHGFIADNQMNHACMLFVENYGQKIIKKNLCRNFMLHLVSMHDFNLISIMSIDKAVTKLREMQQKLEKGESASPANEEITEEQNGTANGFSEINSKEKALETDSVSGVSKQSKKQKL
T1 sequence (Q09028 whole entry partner): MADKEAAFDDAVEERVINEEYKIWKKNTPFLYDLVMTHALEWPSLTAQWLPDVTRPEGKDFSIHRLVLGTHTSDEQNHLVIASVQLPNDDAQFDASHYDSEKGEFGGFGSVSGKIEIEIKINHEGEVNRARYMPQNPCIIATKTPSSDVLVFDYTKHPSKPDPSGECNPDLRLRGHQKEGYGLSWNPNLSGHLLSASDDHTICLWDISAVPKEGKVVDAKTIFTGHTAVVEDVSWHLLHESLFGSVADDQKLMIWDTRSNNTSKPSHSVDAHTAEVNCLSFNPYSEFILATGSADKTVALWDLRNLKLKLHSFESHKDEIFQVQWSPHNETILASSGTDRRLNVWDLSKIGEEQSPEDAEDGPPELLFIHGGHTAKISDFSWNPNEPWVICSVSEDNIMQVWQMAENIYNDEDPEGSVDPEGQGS
T1 sequence (Q6ZN18 whole entry partner): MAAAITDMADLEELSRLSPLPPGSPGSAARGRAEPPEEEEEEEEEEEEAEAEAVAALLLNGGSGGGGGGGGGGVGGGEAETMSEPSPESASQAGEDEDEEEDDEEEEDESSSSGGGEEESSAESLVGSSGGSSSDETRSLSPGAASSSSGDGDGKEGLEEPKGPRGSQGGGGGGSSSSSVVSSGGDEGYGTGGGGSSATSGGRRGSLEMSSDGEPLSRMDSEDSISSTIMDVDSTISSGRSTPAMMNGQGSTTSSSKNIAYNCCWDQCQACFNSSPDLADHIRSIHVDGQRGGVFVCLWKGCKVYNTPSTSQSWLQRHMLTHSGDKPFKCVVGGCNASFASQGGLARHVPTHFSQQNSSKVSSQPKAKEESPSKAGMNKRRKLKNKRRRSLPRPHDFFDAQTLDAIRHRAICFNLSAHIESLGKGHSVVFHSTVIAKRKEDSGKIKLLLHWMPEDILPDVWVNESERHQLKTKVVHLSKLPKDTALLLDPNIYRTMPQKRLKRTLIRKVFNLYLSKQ

For `COc1cc(C)[nH]c(=O)c1CNC(=O)c1c(C)n(C(C)C2CCN(C)C(C(F)(F)F)C2)c2ccccc12` (single isomer, unassigned) [Compound 21, N-((4-methoxy-6-methyl-2-oxo-1,2-dihydropyridin-3-yl)methyl)-2-methyl-1-(1-(1-methyl-2-(trifluoromethyl)piperidin-4-yl)ethyl)-1H-indole-3-carboxamide], the pIC50 (PRC2 containing wt EZH2) was > 7.00, the microsomal CLint at 10 μM [1] was 55 µL/min/mg and the microsomal CLint at 10 μM [2] was 39 µL/min/mg. For the same compound, the concentration at 7 day ([3]; plasma, 100 mg/kg P.O. BID, read-out: Mean Plasma Conc) was 280 ng/mL, the concentration at 7 day ([3]; plasma, 200 mg/kg P.O. BID, read-out: Mean Plasma Conc) was 1600 ng/mL and the concentration at 7 day ([3]; tumor, 100 mg/kg P.O. BID, read-out: Mean Tumor Conc) was 451 ng/g. It also gave a concentration at 7 day ([3]; tumor, 200 mg/kg P.O. BID, read-out: Mean Tumor Conc) of 693 ng/g.
